Patent US10421778B2, “Isoform-selective lysine deacetylase inhibitors” (WASHINGTON UNIVERSITY, priority 2015, dated 2019)
Marks after values point to notes of the source that are not given here. Positions of bridges follow the written chain, without caps; N, C: chain ends. Non-standard residues stand in square brackets, D forms with d. Residues, ends and D or L forms follow the SMILES beside them. *: point of attachment. GABA = NCCCC(=O)O; NHOH = ON*

Legend:
Experiment in all cases: KDAC inhibition assay, Caliper EZ Reader II
Type in all cases: biochemical
[1] = target: T1, recombinant human KDAC3 (Homo sapiens, UniProt O15379); settings: for IC50: 10-point dose curve from 30 μM, read-out: KDAC Inhibition Activity (IC50) KDAC3; for KDAC Inhibition Activity KDAC3 (% inhibition): % inhibition at 30 μM
T1 construct: purchased BPS Bioscience

[2] = target: T2, recombinant human KDAC1 (Homo sapiens, UniProt Q13547); settings: for IC50: 10-point dose curve from 30 μM; for KDAC Inhibition Activity KDAC1 (% inhibition): % inhibition at 30 μM
T2 construct: purchased BPS Bioscience

[3] = target: T3, recombinant human KDAC6 (Homo sapiens, UniProt Q9UBN7); settings: for KDAC Inhibition Activity KDAC6 (% inhibition): % inhibition at 30 μM
T3 construct: purchased BPS Bioscience
T3 sequence (Q9UBN7 1-1215): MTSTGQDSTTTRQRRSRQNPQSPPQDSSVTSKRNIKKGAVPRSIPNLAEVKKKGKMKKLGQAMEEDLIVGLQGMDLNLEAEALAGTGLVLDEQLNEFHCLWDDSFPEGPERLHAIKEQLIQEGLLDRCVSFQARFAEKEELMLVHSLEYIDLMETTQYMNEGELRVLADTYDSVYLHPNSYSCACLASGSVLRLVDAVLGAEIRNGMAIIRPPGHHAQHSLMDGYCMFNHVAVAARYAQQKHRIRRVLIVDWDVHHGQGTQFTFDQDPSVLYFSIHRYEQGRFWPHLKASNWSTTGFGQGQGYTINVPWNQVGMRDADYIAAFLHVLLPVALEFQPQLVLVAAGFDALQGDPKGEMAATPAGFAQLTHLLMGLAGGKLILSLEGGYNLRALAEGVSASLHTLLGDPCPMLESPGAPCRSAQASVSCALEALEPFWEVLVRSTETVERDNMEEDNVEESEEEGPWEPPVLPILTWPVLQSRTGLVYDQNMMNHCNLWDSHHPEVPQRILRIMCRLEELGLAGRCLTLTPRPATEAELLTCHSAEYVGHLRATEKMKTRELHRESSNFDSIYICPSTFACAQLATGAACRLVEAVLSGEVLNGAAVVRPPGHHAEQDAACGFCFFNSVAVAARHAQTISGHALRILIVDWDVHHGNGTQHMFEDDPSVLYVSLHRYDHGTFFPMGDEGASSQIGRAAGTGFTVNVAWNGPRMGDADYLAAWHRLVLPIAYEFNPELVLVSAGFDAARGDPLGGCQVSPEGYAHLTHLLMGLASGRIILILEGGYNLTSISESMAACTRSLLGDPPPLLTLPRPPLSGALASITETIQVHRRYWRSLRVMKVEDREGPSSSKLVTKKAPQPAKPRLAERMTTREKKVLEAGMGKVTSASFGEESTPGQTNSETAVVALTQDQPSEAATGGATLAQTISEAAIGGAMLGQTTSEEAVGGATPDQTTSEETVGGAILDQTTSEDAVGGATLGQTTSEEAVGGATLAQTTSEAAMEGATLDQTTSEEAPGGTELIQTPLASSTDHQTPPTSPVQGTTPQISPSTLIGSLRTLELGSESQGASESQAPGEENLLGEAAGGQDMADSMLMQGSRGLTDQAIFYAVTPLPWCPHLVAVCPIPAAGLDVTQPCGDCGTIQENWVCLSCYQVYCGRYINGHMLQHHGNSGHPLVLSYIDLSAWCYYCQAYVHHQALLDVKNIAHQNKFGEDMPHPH

[4] = target: T4, recombinant human KDAC8 (Homo sapiens, UniProt Q9BY41); settings: for KDAC Inhibition Activity KDAC8 (% inhibition): % inhibition at 30 μM
T4 construct: purchased BPS Bioscience
T4 sequence (Q9BY41 1-377): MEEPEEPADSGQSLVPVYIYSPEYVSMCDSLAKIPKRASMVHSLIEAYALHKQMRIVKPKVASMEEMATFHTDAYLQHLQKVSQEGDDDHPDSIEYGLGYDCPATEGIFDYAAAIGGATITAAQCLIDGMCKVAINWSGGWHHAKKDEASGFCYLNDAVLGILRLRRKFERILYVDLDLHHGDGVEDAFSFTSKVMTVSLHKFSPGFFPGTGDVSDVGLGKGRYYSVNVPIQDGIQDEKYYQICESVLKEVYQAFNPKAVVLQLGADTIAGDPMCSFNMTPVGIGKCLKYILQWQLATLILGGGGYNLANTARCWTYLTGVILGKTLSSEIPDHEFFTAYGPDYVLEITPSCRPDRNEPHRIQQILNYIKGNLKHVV

T2 sequence (Q13547 whole entry): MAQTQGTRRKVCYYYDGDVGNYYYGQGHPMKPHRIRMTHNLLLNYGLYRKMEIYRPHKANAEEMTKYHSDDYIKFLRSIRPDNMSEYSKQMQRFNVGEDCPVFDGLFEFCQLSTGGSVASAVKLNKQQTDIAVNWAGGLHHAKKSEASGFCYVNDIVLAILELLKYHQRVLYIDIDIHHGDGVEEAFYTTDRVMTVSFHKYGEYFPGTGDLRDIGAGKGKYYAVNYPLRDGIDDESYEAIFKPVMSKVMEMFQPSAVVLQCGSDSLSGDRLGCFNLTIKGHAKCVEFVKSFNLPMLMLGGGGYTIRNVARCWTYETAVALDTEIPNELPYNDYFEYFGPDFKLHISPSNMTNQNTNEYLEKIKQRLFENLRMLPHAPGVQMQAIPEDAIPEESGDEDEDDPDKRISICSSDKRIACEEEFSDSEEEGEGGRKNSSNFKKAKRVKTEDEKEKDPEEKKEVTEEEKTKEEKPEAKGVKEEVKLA
T1 sequence (O15379 whole entry): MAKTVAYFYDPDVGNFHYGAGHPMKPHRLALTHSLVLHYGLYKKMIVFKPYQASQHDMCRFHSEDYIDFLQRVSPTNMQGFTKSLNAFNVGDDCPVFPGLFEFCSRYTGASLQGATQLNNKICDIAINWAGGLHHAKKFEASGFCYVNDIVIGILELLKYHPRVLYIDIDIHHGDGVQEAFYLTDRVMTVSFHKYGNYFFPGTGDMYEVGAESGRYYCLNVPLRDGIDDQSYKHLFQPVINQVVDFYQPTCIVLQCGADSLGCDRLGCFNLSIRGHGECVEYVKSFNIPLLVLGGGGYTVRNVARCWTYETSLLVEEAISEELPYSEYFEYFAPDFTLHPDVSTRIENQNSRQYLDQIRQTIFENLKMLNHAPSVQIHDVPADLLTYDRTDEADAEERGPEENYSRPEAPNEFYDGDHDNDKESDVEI
T1 sequence (Q9Y618 395-489 partner limits assumed): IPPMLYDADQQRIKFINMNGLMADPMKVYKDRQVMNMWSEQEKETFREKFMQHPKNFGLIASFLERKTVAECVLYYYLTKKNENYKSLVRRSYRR

| KDAC Inhibition Activity KDAC6 (% inhibition) [3] | KDAC Inhibition Activity KDAC1 (% inhibition) [2] | KDAC Inhibition Activity KDAC8 (% inhibition) [4] | KDAC Inhibition Activity KDAC3 (% inhibition) [1] | Compound | further results |
| --- | --- | --- | --- | --- | --- |
| Not active | 4% | 36% | 8% | Cyclo-Asp(Pro-^DPro-Val)-NHCH2CH2CH2COOH [Compound 24a] | – |
| Not active | Not active | Not active | 7% | Cyclo-Asp(Pro-^DPro-Val)-NHCH2CH2CH2OH [Compound 22a] | – |
| Not active | Not active | 23% | Not active | Cyclo-Asp(Pro-^DPro-Val)-NHCH2CH2CH2S(═O)2CH3 [Compound 21a] | – |
| 19% | Not active | 4% | 1% | Cyclo-Asp(Pro-^DPro-Val)-NHCH2CH2CH2SH [Compound 18a] | – |
| 15% | Not active | 5% | 2% | Cyclo-Asp(Pro-^DPro-Val)-NHCH2CH2SH [Compound 17a] | – |
| 10% | 15% | 10% | 5% | Cyclo-Asp(Pro-^DPro-Val)-NHCH2CH2S—SCH2CH2NH2 [Compound 26a] | – |
| Not active | Not active | 3% | Not active | Cyclo-Asp(^DPro-Pro-Val)-NHCH2CH2CH2COOH [Compound 13a] | – |
| 21% | – | – | 10% | [Cyclo-Asp(Pro-^DPro-Val)-NHCH2CH2CH2S]2 [Compound 38a] | – |
| – | – | 2% | – | [Cyclo-Asp(Pro-^DPro-Val)-NHCH2CH2S]2 [Compound 36a] | – |
| 9% | – | 6% | – | [Cyclo-Asp(^DPro-Pro-Val)-NHCH2CH2CH2S]2 [Compound 37a] | – |
| – | – | – | 2% | [Cyclo-Asp(^DPro-Pro-Val)-NHCH2CH2S]2 [Compound 35a] | – |
| 4% | – | 2% | – | [Cyclo-DAsp(Pro-DPro-Val)-NHCH2CH2S]2 [Compound 36b] | – |
| 40% | – | 3% | 19% | [Cyclo-^DAsp(Pro-^DPro-Val)-NHCH2CH2CH2S]2 [Compound 38b] | – |
| 8% | 1% | – | 53% | [Cyclo-^DAsp(^DPro-Pro-Val)-NHCH2CH2CH2S]2 [Compound 37b] | – |
| 6% | – | 9% | – | [Cyclo-^DAsp(^DPro-Pro-Val)-NHCH2CH2S]2 [Compound 35b] | – |

The next lines start with the compound.

| Compound | KDAC Inhibition Activity KDAC6 (% inhibition) [3] | KDAC Inhibition Activity KDAC1 (% inhibition) [2] | KDAC Inhibition Activity KDAC8 (% inhibition) [4] | KDAC Inhibition Activity KDAC3 (% inhibition) [1] | further results |
| --- | --- | --- | --- | --- | --- |
| CC(C)[C@@H]1NC(=O)[C@@H]2CCCN2C(=O)[C@H]2CCCN2C(=O)C[C@@H](C(=O)O)NC1=O [Compound 3a, Cyclo-Asp(^DPro-Pro-Val)-OH] ([dP]PVD-OH; lactam N-4) | – | – | – | – | inhibition at 30 µM [1]: 1% |
| CC(C)[C@@H]1NC(=O)[C@@H]2CCCN2C(=O)[C@H]2CCCN2C(=O)C[C@H](C(=O)O)NC1=O [Compound 3b, Cyclo-^DAsp(^DPro-Pro-Val)-OH] ([dP]PV[dD]-OH; lactam N-4) | – | – | – | – | inhibition at 30 µM [2]: 2.5%; inhibition at 30 µM [1]: 3% |
| CC(C)[C@@H]1NC(=O)[C@@H]2CCCN2C(=O)[C@H]2CCCN2C(=O)C[C@@H](C(=O)NCCCC(=O)NO)NC1=O [Compound 14a, Cyclo-Asp(^DPro-Pro-Val)-NHCH2CH2CH2CONHOH] ([dP]PVD[GABA]-{NHOH}; lactam N-4) | – | – | – | – | inhibition at 30 µM [3]: 82%; inhibition at 30 µM [2]: 4.5%; inhibition at 30 µM [4]: 31%; inhibition at 30 µM [1]: 67% |
| CC(C)[C@@H]1NC(=O)[C@H]2CCCN2C(=O)[C@@H]2CCCN2C(=O)C[C@@H](C(=O)NCCCC(=O)NO)NC1=O [Compound 25a, Cyclo-Asp(Pro-^DPro-Val)-NHCH2CH2CH2CONHOH] (P[dP]VD[GABA]-{NHOH}; lactam N-4) | – | – | – | – | inhibition at 30 µM [3]: 80%; inhibition at 30 µM [2]: 25%; IC50 [2]: > 30 µM; inhibition at 30 µM [4]: 34%; IC50 ([4]; 10-point dose curve from 30 μM): > 30 µM; inhibition at 30 µM [1]: 45%; IC50 [1]: > 30 µM |
| Nc1ccccc1NC(=O)c1ccc(-c2cn(CCc3ccsc3)nn2)cc1 [Compound T247, N-(2-Aminophenyl)-4-[1-(2-thiophen-3-ylethyl)-1H-[1,2,3]triazol-4-yl]benzamide, reference compound] | – | – | – | – | IC50 [2]: 1.11 µM; IC50 [1]: 3.94 µM |
| Cyclo-Asp(Pro-^DPro-Val)-NHCH2CH2CH2COOMe [Compound 23a] | Not active | Not active | Not active | 7% | – |
| Cyclo-Asp(Pro-^DPro-Val)-NHCH2CH2CH2S(═O)CH3 [Compound 20a] | Not active | Not active | 19% | Not active | – |
| Cyclo-Asp(Pro-^DPro-Val)-NHCH2CH2CH2SCH3 [Compound 19a] | Not active | 2% | 25% | Not active | – |
| Cyclo-Asp(Pro-^DPro-Val)-OBn [Compound 2a] | – | – | 14% | – | – |
| Cyclo-Asp(Pro-^DPro-Val)-OH [Compound 4a] | – | – | – | 24% | – |
| Cyclo-Asp(^DPro-Pro-Val)-NHCH2CH2CH2COOMe [Compound 12a] | Not active | 54.6% | Not active | 2% | – |
| Cyclo-Asp(^DPro-Pro-Val)-NHCH2CH2CH2NH2 [Compound 16a] | 2%^a | Not active | 22%^a | 14%^a | – |
| Cyclo-Asp(^DPro-Pro-Val)-NHCH2CH2CH2OH [Compound 10a] | 1% | Not active | 26% | 1% | – |
| Cyclo-Asp(^DPro-Pro-Val)-OBn [Compound 1a] | 6% | – | 9% | – | – |
| Cyclo-DAsp(Pro-DPro-Val)-OH [Compound 4b] | 10% | – | 4% | 5% | – |
| Cyclo-^DAsp(Pro-^DPro-Val)-OBn [Compound 2b] | 10% | 1.5% | – | 1% | – |
